Results published in PubChem BioAssay AID1963835 (Molecular Pharmacology Branch, DTP, NCI, 2024).

Tested on: 699152-130-R-J1-PDC complex spheroid viability
Assay: Anticancer human tumor 699152-130-R-J1-PDC patient-derived pancreatic carcinoma cell line growth inhibition [POLQ]
Details: for IC50: curve of first compound; for viability, T/C: stronger effect = lower value
Summary of the method: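 PDC + HUVEC + MSC complex spheroids; POLQ inhibitors ± partner drugs; top conc. at/near clinical Cmax, else 10 microM (SN-38 1 microM), half-log dilutions; 37 degrees C, 5% CO2.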

[1] = second compound 0.0316 µM, first compound 0.00316 µM
[2] = second compound 0.0316 µM, first compound 0.01 µM
[3] = second compound 0.0316 µM, first compound 0.0316 µM
[4] = second compound 0.0316 µM, first compound 0.1 µM
[5] = second compound 0.0316 µM, first compound 0.316 µM
[6] = second compound 0.0316 µM, first compound 1 µM
[7] = second compound 0.1 µM, first compound 0.00316 µM
[8] = second compound 0.1 µM, first compound 0.01 µM
[9] = second compound 0.1 µM, first compound 0.0316 µM
[10] = second compound 0.1 µM, first compound 0.1 µM
[11] = second compound 0.1 µM, first compound 0.316 µM
[12] = second compound 0.1 µM, first compound 1 µM
[13] = second compound 0.316 µM, first compound 0.00316 µM
[14] = second compound 0.316 µM, first compound 0.01 µM
[15] = second compound 0.316 µM, first compound 0.0316 µM
[16] = second compound 0.316 µM, first compound 0.1 µM
[17] = second compound 0.316 µM, first compound 0.316 µM
[18] = second compound 0.316 µM, first compound 1 µM
[19] = second compound 1 µM, first compound 0.00316 µM
[20] = second compound 1 µM, first compound 0.01 µM
[21] = second compound 1 µM, first compound 0.0316 µM
[22] = second compound 1 µM, first compound 0.1 µM
[23] = second compound 1 µM, first compound 0.316 µM
[24] = second compound 1 µM, first compound 1 µM
[25] = second compound 3.16 µM, first compound 0.00316 µM
[26] = second compound 3.16 µM, first compound 0.01 µM
[27] = second compound 3.16 µM, first compound 0.0316 µM
[28] = second compound 3.16 µM, first compound 0.1 µM
[29] = second compound 3.16 µM, first compound 0.316 µM
[30] = second compound 3.16 µM, first compound 1 µM
[31] = second compound 10 µM, first compound 0.00316 µM
[32] = second compound 10 µM, first compound 0.01 µM
[33] = second compound 10 µM, first compound 0.0316 µM
[34] = second compound 10 µM, first compound 0.1 µM
[35] = second compound 10 µM, first compound 0.316 µM
[36] = second compound 10 µM, first compound 1 µM
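Also: spheroids exposed to agents for 7 days before viability reading.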
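For viability, T/C in this document: percent of DMSO vehicle control viability so 100% = vehicle and 0% = no viable signal.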

C=CCn1c(=O)c2cnc(Nc3ccc(N4CCN(C)CC4)cc3)nc2n1-c1cccc(C(C)(C)O)n1 + Nc1ccc(C#CCN(C(=O)Cc2ncc(C(F)(F)F)cc2C(F)(F)F)c2ccc(F)cc2)nn1
IC50 (second compound 0.0316 µM): > 1000 nM
IC50 (second compound 0.1 µM): > 1000 nM
IC50 (second compound 0.316 µM): > 1000 nM
IC50 (second compound 1 µM): > 1000 nM
IC50 (second compound 3.16 µM): > 1000 nM
IC50 (second compound 10 µM): > 1000 nM
viability, T/C [1]: 94.2%
viability, T/C [2]: 100%
viability, T/C [3]: 103%
viability, T/C [4]: 93.2%
viability, T/C [5]: 96.1%
viability, T/C [6]: 78.2%
viability, T/C [7]: 105%
viability, T/C [8]: 98%
viability, T/C [9]: 98.1%
viability, T/C [10]: 99.1%
viability, T/C [11]: 89%
viability, T/C [12]: 68.8%
viability, T/C [13]: 104%
viability, T/C [14]: 113%
viability, T/C [15]: 108%
viability, T/C [16]: 106%
viability, T/C [17]: 91%
viability, T/C [18]: 71.9%
viability, T/C [19]: 97.9%
viability, T/C [20]: 94.7%
viability, T/C [21]: 98.5%
viability, T/C [22]: 105%
viability, T/C [23]: 87.3%
viability, T/C [24]: 74.7%
viability, T/C [25]: 107%
viability, T/C [26]: 115%
viability, T/C [27]: 100%
viability, T/C [28]: 112%
viability, T/C [29]: 101%
viability, T/C [30]: 82.8%
viability, T/C [31]: 122%
viability, T/C [32]: 126%
viability, T/C [33]: 109%
viability, T/C [34]: 104%
viability, T/C [35]: 104%
viability, T/C [36]: 81.7%

CCCS(=O)(=O)Nc1ccc(F)c(C(=O)c2c[nH]c3ncc(-c4ccc(Cl)cc4)cc23)c1F + Nc1ccc(C#CCN(C(=O)Cc2ncc(C(F)(F)F)cc2C(F)(F)F)c2ccc(F)cc2)nn1
IC50 (second compound 0.0316 µM): 8520 nM
IC50 (second compound 0.1 µM): 8880 nM
IC50 (second compound 0.316 µM): 8620 nM
IC50 (second compound 1 µM): 8350 nM
IC50 (second compound 3.16 µM): 9380 nM
IC50 (second compound 10 µM): > 10000 nM
viability, T/C [3]: 101%
viability, T/C [4]: 113%
viability, T/C [5]: 118%
viability, T/C [6]: 167%
viability, T/C (second compound 0.0316 µM, first compound 3.16 µM): 167%
viability, T/C (second compound 0.0316 µM, first compound 10 µM): 36.3%
viability, T/C [9]: 109%
viability, T/C [10]: 117%
viability, T/C [11]: 119%
viability, T/C [12]: 143%
viability, T/C (second compound 0.1 µM, first compound 3.16 µM): 188%
viability, T/C (second compound 0.1 µM, first compound 10 µM): 40%
viability, T/C [15]: 111%
viability, T/C [16]: 113%
viability, T/C [17]: 132%
viability, T/C [18]: 175%
viability, T/C (second compound 0.316 µM, first compound 3.16 µM): 184%
viability, T/C (second compound 0.316 µM, first compound 10 µM): 36.2%
viability, T/C [21]: 96.2%
viability, T/C [22]: 116%
viability, T/C [23]: 119%
viability, T/C [24]: 133%
viability, T/C (second compound 1 µM, first compound 3.16 µM): 166%
viability, T/C (second compound 1 µM, first compound 10 µM): 35.8%
viability, T/C [27]: 114%
viability, T/C [28]: 123%
viability, T/C [29]: 124%
viability, T/C [30]: 163%
viability, T/C (second compound 3.16 µM, first compound 3.16 µM): 179%
viability, T/C (second compound 3.16 µM, first compound 10 µM): 44.5%
viability, T/C [33]: 124%
viability, T/C [34]: 128%
viability, T/C [35]: 131%
viability, T/C [36]: 161%
viability, T/C (second compound 10 µM, first compound 3.16 µM): 192%
viability, T/C (second compound 10 µM, first compound 10 µM): 52.9%

CC[C@@]1(O)C(=O)OCc2c1cc1n(c2=O)Cc2cc3c(CN(C)C)c(O)ccc3nc2-1 + Nc1ccc(C#CCN(C(=O)Cc2ncc(C(F)(F)F)cc2C(F)(F)F)c2ccc(F)cc2)nn1
IC50 (second compound 0.0316 µM): > 100 nM
IC50 (second compound 0.1 µM): > 100 nM
IC50 (second compound 0.316 µM): > 100 nM
IC50 (second compound 1 µM): > 100 nM
IC50 (second compound 3.16 µM): > 100 nM
IC50 (second compound 10 µM): > 100 nM
viability, T/C (second compound 0.0316 µM, first compound 0.000316 µM): 109%
viability, T/C (second compound 0.0316 µM, first compound 0.001 µM): 106%
viability, T/C [1]: 97.9%
viability, T/C [2]: 91.8%
viability, T/C [3]: 80.6%
viability, T/C [4]: 65.9%
viability, T/C (second compound 0.1 µM, first compound 0.000316 µM): 100%
viability, T/C (second compound 0.1 µM, first compound 0.001 µM): 108%
viability, T/C [7]: 95.3%
viability, T/C [8]: 92.1%
viability, T/C [9]: 84.4%
viability, T/C [10]: 57.7%
viability, T/C (second compound 0.316 µM, first compound 0.000316 µM): 99.7%
viability, T/C (second compound 0.316 µM, first compound 0.001 µM): 105%
viability, T/C [13]: 102%
viability, T/C [14]: 90%
viability, T/C [15]: 80.1%
viability, T/C [16]: 73.2%
viability, T/C (second compound 1 µM, first compound 0.000316 µM): 113%
viability, T/C (second compound 1 µM, first compound 0.001 µM): 97.8%
viability, T/C [19]: 109%
viability, T/C [20]: 97%
viability, T/C [21]: 82.6%
viability, T/C [22]: 69.9%
viability, T/C (second compound 3.16 µM, first compound 0.000316 µM): 102%
viability, T/C (second compound 3.16 µM, first compound 0.001 µM): 105%
viability, T/C [25]: 95.8%
viability, T/C [26]: 108%
viability, T/C [27]: 85.2%
viability, T/C [28]: 62.2%
viability, T/C (second compound 10 µM, first compound 0.000316 µM): 109%
viability, T/C (second compound 10 µM, first compound 0.001 µM): 119%
viability, T/C [31]: 123%
viability, T/C [32]: 114%
viability, T/C [33]: 108%
viability, T/C [34]: 68%
